Entries after “also recorded” stand apart in the source; their conditions may differ.
Key:
Assay type in all cases: cell-based, human
RRM2 = test: Western blotting of RRM2 protein levels
Experimental: (§1) Transfection was performed as described in Example 4 in 6-well format. Proteins were isolated using RIPA buffer (50 mM Tris pH 8.0, 150 mM NaCL, 1% NP-40, 0.5% Sodium deoxycholate, 0.1% SDS), supplemented with Protease Inhibitor Cocktail (Sigma) and Halt™ Phosphatase Inhibitor Cocktail (Pierce/Thermo Scientific). Fifteen μg protein was loaded on a 12% Mini-PROTEAN® TGX™ Precast Gel (Bio-Rad), and proteins were transferred to Immun-Blot PVDF Membrane (Bio-Rad). Membranes were blocked in 5% milk or 5% BSA in TBS-T, and incubated O/N at 4° C. with primary antibodies against α-tubulin (1:5000), BRAF, pERK1/2, CDK4, RRM2 (all 1:1000), BCL-2 (1:500) (Santa Cruz), total-ERK1/2 (1:2000), BIRC5, AURKB (1:1000) (Cell Signaling), ERK1 (1:2000) (GeneTex). After incubation with appropriate secondary antibodies and western blot chemiluminescence substrate ECL (Pierce/Thermo Scientific), membranes were exposed to CL-XPosure Film (Pierce/Thermo Scientific).

BCL2 = test: Western immunoblotting of BCL2 protein levels
Experimental: (§2) As control a scrambled miRNA and a non-targeting siRNA pool were included. Proteins were harvested 72 hrs post transfection using RIPA buffer supplemented with HALT™ Phosphatase Inhibitor (Thermo Scientific) and Protease Inhibitor Cocktail (Sigma). […] The membranes were blocked in 5% milk in TBS-T and incubated O/N at 4° C. with primary antibodies to bRAF, total ERK1/2, phosphoERK1/2, CDK4, BCL2 and tubulin (Santa Cruz). After incubation with secondary goat-anti-mouse antibodies (Santa Cruz), membranes were developed using ECL (Pierce).
as §2, with “Proteins” for “As control a scrambled miRNA and a non-targeting siRNA pool were included. Proteins”
(§3) As control a scrambled miRNA was included. Proteins were harvested 72 hrs post transfection using RIPA buffer supplemented with HALT™ Phosphatase Inhibitor (Thermo Scientific) and Protease Inhibitor Cocktail (Sigma). Fifteen μg protein was loaded on 10% TGX acrylamide gels (Bio-Rad) and subsequently transferred to PVDF membranes. The membranes were blocked in 5% milk in TBS-T and incubated O/N at 4° C. with primary antibodies to bRAF, total ERK1/2, phosphoERK1/2, BCL2, CDK4 and tubulin (Santa Cruz). After incubation with secondary goat-anti-mouse antibodies (Santa Cruz), membranes were developed using ECL (Pierce).
as §1, with “Proteins” for “Transfection was performed as described in Example 4 in 6-well format. Proteins”, “Fifteen μg protein was loaded on a 12% Mini-PROTEAN® TGX™ Precast Gel (Bio-Rad), and proteins were transferred to Immun-Blot PVDF Membrane (Bio-Rad).” left out

CDK4 = test: Western immunoblotting of CDK4 protein levels
Experimental: as §3, with “A375Hu cells were seeded in 6-well plates and transfected with different concentrations (1, 10 and 100 nM) of synthetic hsa-miR-3157 or BRAF siRNA (100 nM) using RNAiMAX (7.5 μl/well). As” for “As”, “miRNA and a non-targeting siRNA pool were” for “miRNA was”, “on 7.5%” for “on 10%”, “phosphoERK1/2, CDK4, BCL2” for “phosphoERK1/2, BCL2, CDK4”
as §3, with “A375Hu cells were seeded in 6-well plates and transfected with different concentrations of vemurafenib (PLX-4032, 0.01, 0.1, 1 uM).” for “As control a scrambled miRNA was included.”, “7.5%” for “10%”, “CDK4, BCL2” for “BCL2, CDK4”
as §3, with “A2058 cells were seeded in 6-well plates and transfected with different concentrations (1, 10 and 100 nM) of synthetic hsa-miR-3157-5p or BRAF siRNA using X-TremeGene (Roche, 15 μl/well). As” for “As”
as §1

[1] = A375Hu cells, 72 hrs, Western blot
[2] = A375Hu cells, 72 hrs, Western blot, listed as PLX-4032
[3] = A375 cells, increasing concentrations of mimic (FIG. 12c)
[4] = A2058, M249, M249-AR4 and M376, increasing concentrations of mimic (FIG. 14a)
[5] = A2058 cells (vemurafenib resistant), 72 hrs post transfection, Western blot

| Molecule | RRM2 protein levels (RRM2; vemurafenib-resistant A2058, M249-AR4 and M376, 1 μM, 24 hrs (FIG. 14b)) | RRM2 protein levels (RRM2; vemurafenib-sensitive A375 and M249, 1 μM, 24 hrs (FIG. 14b)) | BCL2 protein levels (BCL2; [1]) | BCL2 protein levels (BCL2; [2]) | CDK4 protein levels (CDK4; [2]) | RRM2 protein levels (RRM2; [3]) | RRM2 protein levels (RRM2; [4]) | BCL2 protein levels (BCL2; [3]) | BCL2 protein levels (BCL2; [4]) | BCL2 protein levels (BCL2; [5]) | CDK4 protein levels (CDK4; [1]) | CDK4 protein levels (CDK4; [3]) | CDK4 protein levels (CDK4; A2058, increasing concentrations of mimic (FIG. 14a)) | CDK4 protein levels (CDK4; [5]) | CDK4 protein levels (CDK4; M249-AR4, increasing concentrations of mimic (FIG. 14a)) | CDK4 protein levels (CDK4; M249 and M376, increasing concentrations of mimic (FIG. 14a)) |
| --- | --- | --- | --- | --- | --- | --- | --- | --- | --- | --- | --- | --- | --- | --- | --- | --- |
| CCCS(=O)(=O)Nc1ccc(F)c(C(=O)c2c[nH]c3ncc(-c4ccc(Cl)cc4)cc23)c1F [Vemurafenib, N-(3-{[5-(4-chlorophenyl)-1H-pyrrolo[2,3-b]pyridin-3-yl]carbonyl}-2,4-difluorophenyl)propane-1-sulfonamide] | protein levels similar to control-treated cells | downregulated | but not CDK4 or BCL2 | not in reduction of CDK4 and BCL2 protein levels | not in reduction of CDK4 and BCL2 protein levels | – | – | – | – | – | – | – | – | – | – | – |
| hsa-miR-3157-5p: mature miRNA mimic, SEQ ID NO 6 UUCAGCCAGGCUAGUGCAGUCU (listed as RNA, chemistry not given here) | – | – | significant reduction in BCL2 protein levels; also recorded: down-regulated | – | – | most pronounced | strongly downregulated | strong reduction | no effect | reduction; also recorded: down-regulated | significant reduction in CDK4 protein levels; also recorded: down-regulated | strong reduction | mild effect | reduction; also recorded: down-regulated | no effect | strong downregulation |

Source: patent publication US10201556B2, “Combination for use in treating diseases or conditions associated with melanoma, or treating diseases or conditions associated with activated B-raf pathway” (InteRNA Technologies B.V., priority 2012, dated 2019)
